Read-outs that look alike come from different tables or passages of the source.
What was measured:
[1] = target: T1, benzodiazepine receptors of the peripheral type (Felis catus, UniProt A0ABI7ZQW3); test: inhibition of specific binding of [3H] PK11195 to peripheral type benzodiazepine receptors, membrane proteins of cat brain
T1 sequence (A0ABI7ZQW3 15-183): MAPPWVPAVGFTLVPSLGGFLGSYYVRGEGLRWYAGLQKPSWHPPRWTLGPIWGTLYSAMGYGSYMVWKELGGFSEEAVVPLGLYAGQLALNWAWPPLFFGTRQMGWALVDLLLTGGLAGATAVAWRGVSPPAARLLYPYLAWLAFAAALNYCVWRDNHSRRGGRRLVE
Experimental: The method is similar to that described by J. Benavides et al. in Brain Res. Bull. 13 p. 69-77 (1984) and references cited therein.
Suspensions of membrane proteins of cat brain were prepared as described by J. Benavides.
The assays of inhibition of the binding of [^3 H]
Non specific binding was defined as the amount of [^3 H]

[2] = tested on: receptors of the peripheral type; test: in vivo inhibition of [3H] PK11195 binding to peripheral type receptors in organs of the mouse
Experimental: The assays were carried out in the mouse by using the binder [^3 H]
The products to be tested are administered orally in suspension in an aqueous solution of carboxymethylcellulose (1% wt/v) to groups of 4 mice 35 mn before the intravenous injection of [^3 H] […] 5 mn after the injection the animals are sacrificed by decapitation and the different organs are removed and ground in 10 ml Tris-HCl buffer (50 mM; pH=7.4) to give homogenates.
The control groups only received the carboxymethylcellulose solution and the injection of [^3 H]
A determination was made for each organ by means of scintigraphy of:
1--the amount of radioactive binder present in an organ by measuring the radioactivity of an aliquot of the homogenate.
2--the amount of radioactive binder bound to the membrane tissues of an organ by measuring the radioactivity bound on a fiber glass filter after filtration of another aliquot of the homogenate.
3--the amount of radioactive binder bound non-specifically to the membrane tissues by incubating a control homogenate with an excess of RO5-4864, a known binder, followed by binding of the membranes to a filter and measurement of the radioactivity remaining on the membranes.
The inhibition of specific binding, recorded as SB, is equal to the difference between the radioactivity measurements 2 and 3 divided by measurement 1.
The percentages of inhibition of the binding in different organs determined for compounds of the invention and the reference substances are shown in table VI; they are given by the formula: [formula]

[3] = tested on: central benzodiazepine receptors; test: inhibition of specific binding of [3H] flunitrazepam to central benzodiazepine receptors, rat brain; settings: 4° C., pH 7.4
Experimental: (b) determination of the concentration of the product under study inhibiting 50% of the specific binding of flunitrazepam to the central receptors.
The brains of rats were removed after decapitation and ground, then placed in suspension in an aqueous solution of sucrose (0.32M). The mixture is centrifuged and the pellet is resuspended to give a homogenous suspension in a TRIS-HCl buffered solution (50 mM; pH=7.4). Aliquots of this suspension are incubated at 4° C. after addition of [^3 H] flunitrazepam, alone or with increasing amounts of the compound to be tested.

[4] = oral acute toxicity in the mouse (LD50); format: in vivo; settings: for LD50: in vivo, oral route
Experimental: The compounds of Examples 3, 67, 90, 107 and 114 are atoxic at the dose of 500 mg/kg in the mouse.

[5] = [3H] PK11195 0.5 nM, cat brain membranes, 4° C., 2h30; read-out: IC50 (peripheral)

## CCC(C)N(C)C(=O)c1cc2ccccc2c(-c2ccccc2Cl)n1 (centres unmarked) [PK11195, 1-(2-chlorophenyl) 3-(N-methyl N-methylpropyl) carbamoyl isoquinoline, reference compound]
[1]; [5]
  IC50: 1.3 nM
[2]; 15 mg/kg oral
  % Inhibition, brain: 71%
  % Inhibition, heart: 27%
  % Inhibition, kidney: 54%
  % Inhibition, spleen: 29%
  % Inhibition, thymus: 30%

## CN1C(=O)CN=C(c2ccc(Cl)cc2)c2cc(Cl)ccc21 [R05-4864, 7-chloro 1,3-dihydro 1-methyl 5-(4-chlorophenyl) 1,4-2H-benzodiazepine 2-one, reference compound]
[3]
  IC50 (central): inactive
[1]; read-out: IC50 (peripheral); [3H] PK11195 0.5 nM, cat brain membranes, 4° C., 2h30
  IC50: 44 nM
[2]; 15 mg/kg oral
  % Inhibition, brain: 74%
  % Inhibition, heart: 27%
  % Inhibition, kidney: 73%
  % Inhibition, spleen: 11%
  % Inhibition, thymus: 28%

## CCCN(CCC)C(=O)C(C)Nc1c(C(=O)OCC)cnc2ccc(Cl)cc12 (centres unmarked) [SR 26058]
[4]
  atoxic at the dose of 500 mg/kg: atoxic

## CCCN(CCC)C(=O)C(C)Nc1c(C(=O)OCC)cnc2cc(C(F)(F)F)ccc12 (centres unmarked) [SR 26241, ethyl 4-[1-(N,N-dipropylcarbamoyl)ethylamino] 7-trifluoromethyl quinoline 3-carboxylate]
[4]
  LD50: 1100 mg/kg

## CN(C(=O)CNc1c(C(=O)c2ccccc2)cnc2cccnc12)c1ccc(Cl)cc1 [SR 26276]
[4]
  LD50: > 1800 mg/kg

## CC(Nc1c(C(=O)c2ccccc2)cnc2cccnc12)C(=O)N(C)c1ccc(Cl)cc1 (centres unmarked) [SR 26455]
[4]
  atoxic at the dose of 500 mg/kg: atoxic

## CN(C(=O)CCNc1c(C(=O)c2ccccc2)cnc2cccnc12)c1ccc(Cl)cc1 [SR 26731]
[4]
  atoxic at the dose of 500 mg/kg: atoxic

## CN(C(=O)CNc1c(C(=O)c2ccccc2)cnc2cccnc12)c1ccc(Cl)cc1Cl [SR 26972]
[4]
  atoxic at the dose of 500 mg/kg: atoxic

## COc1ccc(N(C)C(=O)CNc2c(C(=O)c3ccccc3)cnc3cc(Br)ccc23)cc1 [SR 27195]
[4]
  atoxic at the dose of 500 mg/kg: atoxic

## CN(C(=O)CNc1c(C(=O)c2ccccc2)cnc2cccnc12)c1ccc(Cl)cc1 [compound 26276]
[3]
  IC50: 13400 nM
[1]; [5]
  IC50: 0.3 nM
[2]; 8 mg/kg oral
  % Inhibition, brain: 78%
  % Inhibition, heart: 30%
  % Inhibition, kidney: 69%
  % Inhibition, spleen: 37%
  % Inhibition, thymus: 34%

## CCCN(CCC)C(=O)C(C)Nc1c(C(=O)OCC)cnc2cc(Cl)ccc12 (centres unmarked) [compound 26310]
[3]
  IC50: > 20000 nM
[1]; [5]
  IC50: 1 nM
[2]; 25 mg/kg oral
  % Inhibition, brain: 76%
  % Inhibition, heart: 39%
  % Inhibition, kidney: 32%
  % Inhibition, spleen: 52%
  % Inhibition, thymus: 31%

## CN(C(=O)CNc1c(C(=O)c2ccccc2)cnc2cc(Cl)ccc12)c1ccc(Cl)cc1 [compound 26412]
[3]
  IC50: > 10000 nM
[1]; [5]
  IC50: 0.4 nM
[2]; 25 mg/kg oral
  % Inhibition, brain: 79%
  % Inhibition, spleen: 62%

## CN(C(=O)CNc1c(C(=O)c2ccccc2)cnc2cc(Cl)cnc12)c1ccc(Cl)cc1 [compound 26830]
[3]
  IC50: > 10000 nM
[1]; [5]
  IC50: 0.13 nM
[2]; 25 mg/kg oral
  % Inhibition, brain: 64%
  % Inhibition, spleen: 26%

## COc1ccc(N(C)C(=O)CNc2c(C(=O)c3ccccc3)cnc3cc(Cl)ccc23)cc1 [compound 26846]
[3]
  IC50: > 10000 nM
[1]; [5]
  IC50: 2.9 nM
[2]; 25 mg/kg oral
  % Inhibition, brain: 91%
  % Inhibition, spleen: 80%

## CCN(C(=O)CNc1c(C(=O)c2ccccc2)cnc2cccnc12)c1ccc(Cl)cc1 [compound 26858]
[3]
  IC50: > 10000 nM
[1]; [5]
  IC50: 0.77 nM
[2]; 25 mg/kg oral
  % Inhibition, brain: 95%
  % Inhibition, spleen: 84%

## CN(C(=O)CNc1c(C(=O)c2ccccc2)cnc2cc(Br)ccc12)c1ccc(Cl)cc1 [compound 26876]
[3]
  IC50: > 10000 nM
[1]; [5]
  IC50: 0.5 nM
[2]; 25 mg/kg oral
  % Inhibition, brain: 84%
  % Inhibition, spleen: 64%

## COc1ccc(C(=O)c2cnc3cccnc3c2NCC(=O)N(C)c2ccc(Cl)cc2)cc1 [compound 27153]
[3]
  IC50: 47900 nM
[1]; [5]
  IC50: 1.62 nM
[2]; 25 mg/kg oral
  % Inhibition, brain: 87%
  % Inhibition, spleen: 52%

## COc1ccc(N(C)C(=O)CNc2c(C(=O)c3ccccc3)cnc3cccnc23)cc1 [compound 27161]
[3]
  IC50: > 10000 nM
[1]; [5]
  IC50: 2.3 nM
[2]; 25 mg/kg oral
  % Inhibition, brain: 92%
  % Inhibition, spleen: 78%

From US5026711A, “4-amino quinolines and naphthyridines and their use as medicines” (priority 1988, dated 1991)
